Patent US10213415B2, “Compounds as opioid receptor modulators” (JANSSEN PHARMACEUTICA NV, priority 2004, dated 2019)

Tests used:
human mu opioid receptor = biological target: T1, human mu opioid receptor (Homo sapiens, UniProt P35372); assay: Human Mu Opioid Receptor Binding Assay (CHO membranes, 3H-Damgo); details: read-out: hKi μ
T1 construct: purchased Perkin Elmer RBHOMM400UA; host or cells: Chinese Hamster Ovary cells (recombinant expression)
How it was run: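 Membranes from CHO cells expressing human mu opioid receptor, 300 μg/mL, in 50 mM Tris pH 7.5, 5 mM MgCl2. Incubated with compound and ³H-Damgo (3.6 nM before mixing) for 2 h at room temperature, filtered, counted by scintillation. Nonspecific binding with 1 μM unlabelled Damgo.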

[1] = biological target: T2, delta opioid receptor (CHO-hδ cell membranes) (Homo sapiens, UniProt P41143); assay: Delta Opioid Receptor Functional Assay: [35S]GTPγS Binding in CHO-hδ Cell Membranes, Version 1; type: biochemical; details: read-out: DOR GTP-binding Assay_v1 EC50
T2 construct: purchased Receptor Biology, Inc. (Baltimore, Md.); host or cells: CHO cells (recombinant expression)
Procedure: CHO-hδ cell membranes were purchased from Receptor Biology, Inc. (Baltimore, Md.). 10 mg/ml of membrane protein suspended in 10 mM TRIS-HC pH 7.2, 2 mM EDTA, 10% sucrose.
Membranes were maintained at 4-8° C. A portion (1 ml) of membranes was added into 15 mL cold binding assay buffer. The assay buffer contained 50 mM HEPES, pH 7.6, 5 mM MgCl2, 100 mM NaCl, 1 mM DTT and 1 mM EDTA. The membrane suspension was homogenized with a Polytron for 2 times and centrifuged at 3000 rpm for 10 min. The supernent was then centrifuged at 18,000 rpm for 20 min. The pellet was saved in a tube and 10 ml assay buffer was added into the tube. The pellet and buffer were mixed with a Polytron.
The pellet membranes (20 μg/ml) were preincubated with SPA (10 mg/ml) at 25° C. for 45 min in the assay buffer. The SPA (5 mg/ml) coupled with membranes (10 μg/ml) was then incubated with 0.5 nM [^35S]GTPγS in the same HEPES buffer containing 50 μM GDP in total volume of 200 μl. Increasing concentrations of receptor agonists were used to stimulate [^35S]GTPγS binding. The basal binding was tested in the absent agonists and no specific binding was tested in the present 10 μM unlabeled GTPγS. The data were analyzed on a Top counter.
Data The % of Basal=(stimulate−non specific)*100/(basal−non specific). EC50 values were calculated using a Prism program.

[2] = biological target: T3, mu opioid receptor (CHO-hMOR cell membranes) (Homo sapiens, UniProt P35372); assay: Mu Opioid Receptor Functional Assay: [35S]GTPγS Binding in CHO-hMOR Cell Membranes, Versions 1 and 2; type: biochemical; details: for MOR GTP binding assay_v1 (% I): version 1, % inhibition of agonist-stimulated GTPγS binding; for MOR GTP assay_v1 % of Basal: version 1, basal binding = 100%
T3 construct: purchased Receptor Biology, Inc. (Baltimore, Md.); host or cells: CHO cells (recombinant expression)
How it was run: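 CHO-hMOR membranes (10 μg/ml) on WGA SPA beads, preincubated 45 min at 25 °C, then incubated with 0.5 nM [35S]GTPγS in HEPES pH 7.6, 5 mM MgCl2, 100 mM NaCl, 1 mM DTT, 1 mM EDTA. Non-specific binding with 10 μM unlabeled GTPγS; agonist EC50 from concentration-response, antagonism as inhibition of 1 μM SNC80-stimulated binding.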

[3] = biological target: T4, human delta subtype 2 opioid receptor (Homo sapiens, UniProt P41143); assay: Human Delta Opioid Receptor Binding Assay (CHO membranes, 3H-Naltrindole); details: read-out: hKi δ
T4 construct: purchased Perkin Elmer RBHODM400UA; host or cells: Chinese Hamster Ovary cells (recombinant expression)
How it was run: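 Filtration binding on CHO-cell membranes expressing the human receptor, in 50 mM Tris pH 7.5 with 5 mM MgCl2, 30 min at room temperature; 3H-naltrindole diluted to 6 nM before mixing 1:1 with compound. Nonspecific binding defined with 1 μM unlabelled naltrindole; inhibition relative to no-inhibitor wells.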

delta opioid receptor [4] = biological target: T5, delta opioid receptor (Rattus norvegicus, UniProt P33533); assay: Rat Brain Delta Opioid Receptor Binding Assay ([3H]DPDPE); details: rat forebrain membranes, margin of error 10-20%, read-out: r Ki δ
T5 construct: from tissue; host or cells: forebrain of male Wistar rats
How it was run: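 Rat (male Wistar) forebrain membranes in 50 mM Tris-HCl pH 7.4 with 5 mM MgCl2, incubated with ~4 nM [3H]DPDPE for 2.5 h at 25 °C. Bound ligand collected by filtration and scintillation counting. Single-concentration data given as % inhibition of specific binding; concentration series fitted to Ki.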

mu opioid receptor = biological target: T6, mu opioid receptor (Rattus norvegicus, UniProt P33535); assay: Rat Brain Mu Opioid Receptor Binding Assay (and Version 2a, [3H]DAMGO); details: rat forebrain membranes, margin of error 10-20%, read-out: r Ki μ
T6 construct: from tissue; host or cells: forebrain of male Wistar rats
How it was run: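 Rat forebrain membranes from male Wistar rats in 50 mM Tris-HCl pH 7.4 with 5 mM MgCl2 incubated with 0.8 nM [3H]DAMGO for 2.5 h at 25° C., then filtered and counted. Data given as % inhibition of specific binding at single concentrations or as Ki from concentration series.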

[5] = biological target: T7, delta opioid receptor (NG108-15 cell membranes) (Mus musculus, UniProt P32300); assay: Delta Opioid Receptor Functional Assay: [35S]GTPγS Binding in NG108-15 Cell Membranes, Version 2; type: biochemical; details: NG108-15 cell membranes, version 2
T7 construct: NG108-15 cell membranes were purchased from Applied Cell Sciences (Rockville, Md.); host or cells: NG108-15 cells (membranes purchased)
How it was run: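 SPA-coupled NG108-15 membranes (37.5 μg/ml) were incubated with 0.1 nM [35S]GTPγS and 100 μM GDP in Tris pH 7.6, 5 mM MgCl2, 100 mM NaCl, with increasing agonist concentrations; 10 μM unlabeled GTPγS defined nonspecific binding. EC50 from % of basal; inhibition as % of 1 μM SNC80 stimulation.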

male CD-1 mice = assay: In Vivo Assay: Upper GI Tract Transit (MUGIT); details: Mus musculus, po, 1 h, dose 30 (mg), p.o., read-out: upper GI transit (% ctrl)
Procedure: Methods: The animals used in these studies were male CD-1 mice, ave. wt. ˜30 g. Mice were housed under 12 h/12 h light/dark cycle, food & water ad lib. On the day of the experiment mice were assigned to experimental groups, including one vehicle-only group (=control). At 30 min before administration of carmine dye, animals were dosed with vehicle or vehicle-plus-compound, mice were returned to their home cages after drug administration. After administration of carmine, the animals were either returned to their home cages (non-stressed) or individually placed in the same metal cages as used in the fecal output or entire GI tract transit to induce a novel environment stress. One hour after administration of carmine, mice were sacrificed by cervical dislocation, the abdomen opened midventrally, the small intestine from pylorus to cecum was removed, the mesentery divided in order to lay the intestine straight & flat—without stretching. The total length of intestine and the length of carmine-dyed intestine were measured in order to determine the percent of the upper GI tract over which transit had occurred as follows: {(Length of carmine-dyed intestine)/(Total length of intestine)}×100=% upper GI transit. The data expressed were group means±SD (or s.e.m.) and data expressed as % of control.

delta opioid receptor [6] = biological target: T5, delta opioid receptor; assay: Rat Brain Delta Opioid Receptor Binding Assay-Version 1a ([3H]naltrindole); details: rat forebrain membranes, 0.1 nM [3H]naltrindole; margin of error 10-20%; read-out: r Ki δ Ver. 1a
Procedure: Male, Wistar rats (150-250 g, VAF, Charles River, Kingston, N.Y.) were killed by cervical dislocation, and their brains removed and placed immediately in ice-cold Tris HCl buffer (50 mM, pH 7.4). The forebrains were separated from the remainder of the brain by a coronal transection, beginning dorsally at the colliculi and passing ventrally through the midbrain-pontine junction. After dissection, the forebrains were homogenized in Tris buffer in a Teflon®-glass homogenizer. The homogenate was diluted to a concentration of 1 g of forebrain tissue per 80 mL Tris and centrifuged at 39,000×g for 10 min. The pellet was resuspended in the same volume of Tris buffer containing 5 mM MgCl2 with several brief pulses from a Polytron homogenizer. This particulate preparation was used for the delta opioid binding assay. Following incubation with 0.1 nM of the delta selective ligand [^3H]naltrindole at 25° C. for 2.5 h in a 96-well plate with total 1 mL, the plate contents were filtered through Wallac filtermat B sheets on a Tomtec 96-well harvester. The filters were rinsed three times with 2 mL of 10 mM HEPES (pH 7.4), and dried in a microwave oven. To each sample area, Betaplate Scint scintillation fluid (LKB) was added and the resulting radioactivity quantified on a LKB (Wallac) 1205 BetaPlate liquid scintillation counter. Kd and Ki values were calculated using the GraphPad PRISM data analysis program.

T6 sequence (P33535 whole entry): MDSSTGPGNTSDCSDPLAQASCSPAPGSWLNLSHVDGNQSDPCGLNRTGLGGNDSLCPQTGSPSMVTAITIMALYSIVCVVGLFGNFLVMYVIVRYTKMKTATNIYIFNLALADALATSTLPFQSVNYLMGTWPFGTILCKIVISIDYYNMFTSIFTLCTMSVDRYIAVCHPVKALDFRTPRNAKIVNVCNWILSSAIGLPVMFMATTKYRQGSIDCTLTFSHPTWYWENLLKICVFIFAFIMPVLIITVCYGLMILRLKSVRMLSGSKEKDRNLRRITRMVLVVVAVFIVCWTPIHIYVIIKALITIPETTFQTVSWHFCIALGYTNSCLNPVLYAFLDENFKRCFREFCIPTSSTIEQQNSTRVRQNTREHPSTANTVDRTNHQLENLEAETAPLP
T5 sequence (P33533 whole entry): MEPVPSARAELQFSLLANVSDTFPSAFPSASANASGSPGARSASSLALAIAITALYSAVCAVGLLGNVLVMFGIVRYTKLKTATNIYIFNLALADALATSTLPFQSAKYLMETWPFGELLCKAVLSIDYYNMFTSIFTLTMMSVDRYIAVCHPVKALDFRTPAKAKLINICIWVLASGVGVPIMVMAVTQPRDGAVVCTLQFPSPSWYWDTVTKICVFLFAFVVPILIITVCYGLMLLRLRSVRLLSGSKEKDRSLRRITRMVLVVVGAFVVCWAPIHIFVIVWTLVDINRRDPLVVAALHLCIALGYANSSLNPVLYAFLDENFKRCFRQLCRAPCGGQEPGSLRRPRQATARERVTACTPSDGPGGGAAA
T2 sequence (P41143 whole entry): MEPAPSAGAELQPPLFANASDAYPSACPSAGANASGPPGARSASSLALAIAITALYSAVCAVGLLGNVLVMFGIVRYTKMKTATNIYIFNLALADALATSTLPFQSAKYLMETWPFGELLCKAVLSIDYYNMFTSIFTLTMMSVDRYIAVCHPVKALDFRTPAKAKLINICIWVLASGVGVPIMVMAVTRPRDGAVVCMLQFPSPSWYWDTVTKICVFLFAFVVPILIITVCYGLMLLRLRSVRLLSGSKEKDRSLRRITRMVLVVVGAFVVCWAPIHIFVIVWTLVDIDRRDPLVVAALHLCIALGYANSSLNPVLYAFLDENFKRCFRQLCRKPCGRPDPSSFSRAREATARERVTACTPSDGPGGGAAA
T3 sequence (P35372 whole entry): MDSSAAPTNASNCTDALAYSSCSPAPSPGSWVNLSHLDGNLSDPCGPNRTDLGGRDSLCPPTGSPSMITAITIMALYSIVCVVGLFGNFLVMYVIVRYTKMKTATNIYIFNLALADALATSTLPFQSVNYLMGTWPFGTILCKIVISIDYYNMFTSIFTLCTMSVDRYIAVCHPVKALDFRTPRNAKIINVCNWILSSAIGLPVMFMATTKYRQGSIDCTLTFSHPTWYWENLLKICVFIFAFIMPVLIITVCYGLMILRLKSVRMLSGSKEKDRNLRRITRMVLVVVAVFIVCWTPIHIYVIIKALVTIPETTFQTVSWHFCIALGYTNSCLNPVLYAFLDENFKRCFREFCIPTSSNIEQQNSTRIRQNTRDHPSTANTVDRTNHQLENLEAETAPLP
T1 sequence (P35372 whole entry): as above
T7 sequence (P32300 whole entry): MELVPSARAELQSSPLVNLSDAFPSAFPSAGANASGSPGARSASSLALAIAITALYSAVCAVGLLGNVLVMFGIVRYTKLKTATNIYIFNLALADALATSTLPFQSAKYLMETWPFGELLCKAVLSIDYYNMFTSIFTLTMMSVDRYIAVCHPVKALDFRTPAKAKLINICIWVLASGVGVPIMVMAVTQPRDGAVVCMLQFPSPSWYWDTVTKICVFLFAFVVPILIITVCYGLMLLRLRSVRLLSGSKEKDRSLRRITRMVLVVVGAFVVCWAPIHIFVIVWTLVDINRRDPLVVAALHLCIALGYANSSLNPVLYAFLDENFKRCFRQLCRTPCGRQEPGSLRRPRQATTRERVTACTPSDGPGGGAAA
T4 sequence (P41143 whole entry): as the sequence (P41143 whole entry) above

SMILES | EC50 [1] | MOR GTP binding assay_v1 (% I) [2] | MOR GTP assay_v1 % of Basal [2] | Ki (delta opioid receptor [4]) | Ki (mu opioid receptor) | Ki (delta opioid receptor [6]) | also measured
Cc1cc(O)cc(C)c1C[C@H](N)C(=O)N(Cc1nc(-c2cccc(CO)c2)c(C)[nH]1)C(C)C [Cpd 130] | 16 nM | 1.62% | 866.39% | – | – | – | Ki (human mu opioid receptor): 1.6 nM; Ki [3]: 712 nM
Cc1cc(O)cc(C)c1C[C@H](N)C(=O)N(Cc1nc(-c2cncnc2)c(C)[nH]1)C(C)C [Cpd 131] | 99 nM | 28.64% | 391.98% | – | – | – | Ki (human mu opioid receptor): 3.1 nM; Ki [3]: 675 nM
CCN(C(=O)[C@@H](N)Cc1c(C)cc(O)cc1C)[C@H](c1nc(-c2ccccc2)c[nH]1)C(C)C [Cpd 170] | 115 nM | 26.00% | – | 32.6 nM | 0.48 nM | – | –
CCN(C(=O)[C@@H](N)Cc1c(C)cc(C(N)=O)cc1C)[C@@H](C)c1nc(-c2ccccc2)c[nH]1 [Cpd 197] | 140 nM | 1.00% | 582.00% | 4.27 nM | 0.9 nM | – | –
C[C@@H](c1nc(-c2ccccc2)c[nH]1)N(C)C(=O)[C@@H](N)Cc1ccc(C(N)=O)cc1 [Cpd 202] | 1580 nM | 1.00% | 529.00% | 31.5 nM | 5.9 nM | – | –
Cc1cc(O)cc(C)c1C[C@H](N)C(=O)N(Cc1ccc(C(=O)O)o1)[C@@H](C)c1nc(-c2ccccc2)c[nH]1 [Cpd 287] | – | – | – | 0.14 nM | 0.13 nM | – | EC50 ([5]; [35S]GTPγS, read-out: DOR GTP-binding Assay_v2_ EC50): > 10 µM; DOR GTP-binding Assay v2 (% I) ([5]; % inhibition of agonist-stimulated GTPγS binding): 84.50%; response vs control in vivo at 30 mg (male CD-1 mice): 66.4%
C[C@@H](c1nc(-c2ccccc2)c[nH]1)N(Cc1ccc(C(=O)O)o1)C(=O)[C@@H](N)Cc1ccc(C(N)=O)cc1 [Cpd 304] | – | – | – | – | 161 nM | 119 nM | Ki (human mu opioid receptor): 41 nM
COc1ccc(CN(C(=O)[C@@H](N)Cc2c(C)cc(O)cc2C)[C@@H](C)c2nc(-c3ccccc3)c[nH]2)cc1C(=O)Nc1ccccc1 [Cpd 305] | – | – | – | – | 0.2 nM | 1.24 nM | –
COc1ccc(CN(C(=O)[C@@H](N)Cc2c(C)cc(O)cc2C)[C@@H](C)c2nc(-c3ccccc3)c[nH]2)cc1C(=O)Nc1cccc(C(=O)O)c1 [Cpd 306] | – | – | – | – | 0.9 nM | 0.18 nM | –
COc1ccc(CN(C(=O)[C@@H](N)Cc2c(C)cc(O)cc2C)[C@@H](C)c2nc(-c3ccccc3)c[nH]2)cc1-c1nnn[nH]1 [Cpd 307] | – | – | – | – | 0.4 nM | 0.07 nM | –
COc1ccc(CN(C(=O)[C@@H](N)Cc2c(C)cc(O)cc2C)[C@@H](C)c2nc(-c3ccccc3)c[nH]2)cc1C(=O)Nc1ccc(C(=O)O)cc1 [Cpd 308] | – | – | – | – | 1.2 nM | 0.48 nM | –
